Data: patent publication US20200237800A1, “METHODS AND COMPOSITIONS FOR THE TREATMENT OF INFLAMMATORY DISEASE” (THE BRIGHAM AND WOMEN'S HOSPITAL, INC., priority 2017, published 2020)
Strand notation (5' to 3'): a small letter for the sugar, then the base; units joined by * are phosphorothioate-linked, units joined directly phosphodiester-linked; [ ] holds rarer units or linkages, { } end groups; capitals alone tell only the bases. d = 2'-deoxy (DNA); m = 2'-O-methyl; r = 2'-OH (RNA)

How the values were obtained:
lnc-FAM164A1 = experiment: Silencing of lnc-FAM164A1 by antisense and si-RNA oligonucleotides on human PBMC-derived macrophages (RT-PCR); type: cell-based; settings: for potency of silencing of lnc-FAM164A1: compared among 10 different siRNA oligonucleotides in human macrophages
Procedure: (§1) Silencing of lnc-FAM164A1 by antisense and si-RNA oligonucleotides on human PBMC-derived macrophages. Lnc-FAM164A1 RNA silencing was performed on human PBMC-derived macrophagesas using SilenceMag (BOCA Scientific, Boca Raton, Fla.) at final concentration of 50-100 nM.32 36-48 hours after transfection, macrophages were stimulated by 10 ng/mL LPS for 2-6 hours before collection of macrophages and cell culture medium. Anti-sense LNATM long RNA GepmeR oligonucleotides target lnc-FAM164A1 (Sequence 5′-GGTAAGAAATAGGTTG-3′(SEQ ID NO: 52)) and nonspecific negative control oligonucleotides (Sequence 5′-AACACGTCTATACGC-3′(SEQ ID NO: 53)) were designed by Exiqon A/S (Vedbaek, Denmark). Si-RNA Oligonucleotides targeting lnc-FAM164A1 and luciferase control siRNA oligos were designed by Axolabs (Kulmback, Germany). Their sequences and chemical modifications are as follows (A, G, U, C: RNA nucleotide; a, g, u, c: 2′-O-methyl-nucleotide, s: Phosphorothioate, dT: desoxy-T residue): Luciferase control siRNA (XD-00194): Sense strand: 5′-cuuAcGcuGAGuAcuucGAdTsdT-3′ (SEQ ID NO: 54); Antisense strand: 5′-UCGAAGuACUcAGCGuAAGdTsdT-3′ (SEQ ID NO: 4). Lnc-FAM164A1 specific siRNA oligo#5 (XD-05325): 5′-ucAccAuuAucuucAuAcudTsdT-3′(SEQ ID NO: 5) Antisense strand: 5′-AGuAUGAAGAuAAUGGUGAdTsdT-3′ (SEQ ID NO: 6). Lnc-FAM164A1 specific siRNA oligo#8 (XD-05328): 5′-uguGcuAAAAuAcuGAGAudTsdT-3′ (SEQ ID NO: 7); Antisense strand: 5′-AUCUcAGuAUUUuAGcAcAdTsdT-3′ (SEQ ID NO: 8).
RNA extraction and RT-PCR. Total RNA were extracted using an Illustra RNAspin Mini kit (GE Healthcare, Piscataway, N.J.) and the genomic DNA was removed by on-column DNase I digestion at RT for 15 minutes. cDNAs were synthesized using a high capacity cDNA reverse transcription kit (Applied Biosystems, Carlsbad, Calif.). Real-time PCR was performed on a 7900HT fast real-time PCR system (Applied Biosystems). […]

[1] = system: human PBMC-derived macrophages; experiment: Cytokine/chemokine mRNA (RT-PCR) and protein (ELISA) in LPS-activated human PBMC-derived macrophages after lnc-FAM164A1 silencing; type: cell-based; settings: for TNF-α mRNA: FIG. 11E
Procedure: as §1
(§2) RNA extraction and RT-PCR. Total RNA were extracted using an Illustra RNAspin Mini kit (GE Healthcare, Piscataway, N.J.) and the genomic DNA was removed by on-column DNase I digestion at RT for 15 minutes. cDNAs were synthesized using a high capacity cDNA reverse transcription kit (Applied Biosystems, Carlsbad, Calif.). Real-time PCR was performed on a 7900HT fast real-time PCR system (Applied Biosystems). Taqman probe and primers for lnc-FAM164A1 were designed by Integrated DNA Technologies and listed as follows: Probe: 5′-/56-FAM/ATGG CCTCA/ZEN/GTTAGGACTGCTTGG/3IABkFQ/-3′ (SEQ ID NO: 9); Primer1: 5′-GATGGGTGC TGGGAGTATAAG-3′ (SEQ ID NO: 10); Primer2: 5′-[…]-3′ (SEQ ID NO: 11). Other Taqman probes for IL-1β, IL-6, IL-10, CCL2, TNF-α, and GAPDH was purchased from Life Technologies. Relative expression of each gene was normalized by GAPDH.
ELISA. Duoset ELISA kits (R&D systems, Minneapolis, Minn.) were used to detect the levels of cytokines (human and mouse CCL2, IL-6, TNF-α) in culture medium from macrophages or mouse plasma.

NF-κB signaling = experiment: NF-κB inhibitor pretreatment of LPS-stimulated PBMC-derived macrophages (RT-PCR); type: cell-based, human; settings: 3-30 μM, dose-dependent; 30 minutes pretreatment, 10 ng/mL LPS 6 hours
Procedure: FIGS. 10A and 18B. (FIG. 10A) Time course of lnc-FAM164A1 and cytokines expression in LPS-stimulated PBMC-derived macrophages. Human PBMC-derived macrophages were stimulated with 10 ng/mL LPS for 6, 12 and 24 hours. Lnc-FAM164A1 RNA, IL-1β, IL-6 and TNF-α mRNA expression were determined by RT-PCR and normalized by GAPDH expression. (Representative results of 2 different donors). […] Human PBMC-derived macrophages were pretreated with 3-30 μM […] for 30 minutes before the stimulation with 10 ng/mL LPS for 6 hours. Lnc-FAM164A1 RNA, IL-1β, IL-6 and TNF-α mRNA expression were determined by RT-PCR and normalized by GAPDH expression (Representative data from 2 different donors).
as §2, with “Other Taqman probes for IL-1β, IL-6, IL-10, CCL2, TNF-α, and GAPDH was purchased from Life Technologies. Relative expression of each gene was normalized by GAPDH.” left out

[2] = system: human PBMC-derived macrophages; experiment: Induction of lnc-FAM164A1 expression in human PBMC-derived macrophages (RT-PCR); type: cell-based; settings: 10 ng/mL cytokine, 3 hours
Procedure: FIGS. 1A-1E show LPS treatment increases the expression of lnc-FAM164A1 in human macrophages, PBMCs and white blood cells in humanized Hu-CD34 NSG mice. […] Human PBMC-derived macrophages were stimulated with 10 ng/mL LPS for 3h or 6h (FIG. 1B, P<0.05 LPS vs control; n=5-6 different donors). Human PBMC was isolated from citrated whole blood derived stimulated with 10 ng/mL LPS for 6 hours ex vivo (FIG. 1C, P<0.05 LPS vs control; n=3-4 different donors). Hu-CD34 NSG mice were stimulated with 5 mg/kg of LPS for 6 hours (FIG. 1D, P<0.05, NSG control vs NSG +LPS, n=4 mice per group). Relative fold change of the lnc-FAM164A1 expression was determined by RT-PCR (FIGS. 1B-1D). […]
FIG. 9A-9C show human PBMC-derived macrophages were stimulated with 10 ng/mL human IL-6 and TNF-α for 3 hours. Relative fold change of the lnc-FAM164A1 expression was determined by RT-PCR (P<0.05 LPS vs control; n=3-4 different donors) (FIG. 9A). […] Expression of lnc-FAM164A1 RNA in liver, spleen and lung isolated from the endotoxemic mice was determined by RT-PCR (P<0.05, Spleen vs Lung; n=4 mice per group) (FIG. 9B). […] Lnc-FAM164A1 RNA, IL-1β and GAPDH mRNA expression were determined by RT-PCR and shown as the ratio of nuclear/cytoplasmic in unstimulated macrophages (Left Panel) and LPS-treated macrophages (Right Panel) (n=2 different donors). […]

[3] = LPS-stimulated human macrophages

| Compound | LPS-induced CCL2 mRNA expression and protein release [1, 3] | LPS-induced IL-6 mRNA expression and protein release [1, 3] | potency of silencing of lnc-FAM164A1 (lnc-FAM164A1) | TNF-α mRNA [1, 3] | lnc-FAM164A1 expression [2] | further results |
| --- | --- | --- | --- | --- | --- | --- |
| 5′-GGTAAGAAATAGGTTG-3′ (LNA gapmer, pattern and linkages not given here) [anti-sense oligonucleotides] | significant suppressed | significant suppressed | – | – | – | silencing efficacy of lnc-FAM164A1 (lnc-FAM164A1; human macrophages, FIG. 11A): at least 50%; LPS-induced TNF-α mRNA expression and protein release [1, 3]: significant suppressed; expression of anti-inflammatory cytokine IL-10 ([1]; control and LPS-treated macrophages): no changes |
| 5′-ucAccAuuAucuucAuAcudTsdT-3′ (sense mUmCrAmCmCrAmUmUrAmUmCmUmUmCrAmUrAmCmUdT*dT; antisense rArGmUrArUrGrArArGrAmUrArArUrGrGrUrGrAdT*dT; siRNA) [#5] | decreased expression | decreased expression | higher potency of silencing than the others | No significant change | – | – |
| 5′-uguGcuAAAAuAcuGAGAudTsdT-3′ (sense mUmGmUrGmCmUrArArArAmUrAmCmUrGrArGrAmUdT*dT; antisense rArUrCrUmCrArGmUrArUrUrUmUrArGmCrAmCrAdT*dT; siRNA) [#8] | decreased expression | decreased expression | higher potency of silencing than the others | No significant change | – | – |
| Cc1ccc(S(=O)(=O)/C=C/C#N)cc1 [Bay 11-7802] | – | – | – | – | – | transcription of cytokines (IL-1β, IL-6 and TNF-α mRNA) (NF-κB signaling): blocks the transcription; transcription of lnc-FAM164A1 (NF-κB signaling): blocks the transcription |
| IL-6: human IL-6, pro-inflammatory cytokine used as stimulus at 10 ng/mL | – | – | – | – | increased the expression | – |
| TNF-α | – | – | – | – | increased the expression | – |
